This note sets out measurements from patent US3966734A, “Method for the purification of 6-methoxy-1-phenazinol 5,10-dioxide” (Hoffmann-La Roche Inc., priority 1975, dated 1976).

In data set [1] the test system is gram positive and gram negative bacteria, fungi, protozoa and helminths. Kind of data set: Anti-microbial activity in in vitro tests and in vivo topical infections (general statement).
The next data set can be described thus: Solubility in water. Format: physicochemical.
Another data set deals with S. agalactiae. The data set is described as follows: In vivo anti-microbial activity against S. agalactiae. How it is done:
(§1) For example, the anti-microbial activity of calcium myxin dihydrate, prepared by the method of this invention, is evaluated and compared to that of myxin itself both in vivo against 4 strains of bacteria and in vitro against yeast and fungus infections.

A further data set has as its system S. aureus. Kind of data set: In vivo anti-microbial activity against S. aureus. How it is done: as §1
For a further data set, the system named is E. coli. Kind of data set: In vivo anti-microbial activity against E. coli. On the procedure:
as §1

Another data set has as its system P. aeruginosa. Kind of data set: In vivo anti-microbial activity against P. aeruginosa. On the procedure:
as §1

For a further data set, the system named is C. albicans. The data set is described as follows: In vitro anti-microbial activity (minimum inhibitory concentration) against C. albicans. In kind it is cell-based. On the procedure: as §1
The test system of a further data set is M. canis. Kind of data set: In vitro anti-microbial activity (minimum inhibitory concentration) against M. canis. Format: cell-based. How it is done: as §1

In the case of `COc1cccc2c1[n+]([O-])c1cccc(O)c1[n+]2[O-]` [Myxin, 6-methoxy-1-phenazinol 5,10-dioxide], the anti-microbial activity result in data set [1] is “high degree and wide spectrum of anti-microbial activity”. Besides, in the data set “Solubility in water”, the solubility in water result is “very slightly soluble in water”.
Take “6-methoxy-1-phenazinol 5,10-dioxide, calcium dihydrate complex [Calcium Myxin Dihydrate]”: the “ED50' (in vivo)” value with S. agalactiae was less than 4 µg/mL; in the data set on S. aureus, less than 20 µg/mL; in the data set on E. coli, 60 µg/mL; in the data set with P. aeruginosa it was 20 µg/mL. The “Minimum Inhibitory Concentration, cidal” value with C. albicans (cidal) and in the data set with M. canis (cidal) was less than 0.8 µg/mL throughout. The “Minimum Inhibitory Concentration, static” value with C. albicans (static) and in the data set on M. canis (static) was less than 0.8 µg/mL throughout.
